Measured values reported in patent US20230312556A1, “ARYLAMIDE COMPOUND, PHARMACEUTICAL COMPOSITION COMPRISING SAME, AND PREPARATION METHOD THEREFOR AND USE THEREOF” (SICHUAN KELUN-BIOTECH BIOPHARMACEUTICAL CO., LTD., priority 2020, published 2023).

Target: mutant BRAF enzyme (BRAF-V600E) (Homo sapiens (Human), UniProt P15056, V600E)
Experiment: RAF inhibition assay (TB-PMAP2K1 kit), BRAF-V600E
Format: biochemical
Conditions: FLUORESCEIN-MAP2K1 substrate, 60 min reaction

mutant BRAF enzyme (BRAF-V600E), sequence (P15056 whole entry V600E): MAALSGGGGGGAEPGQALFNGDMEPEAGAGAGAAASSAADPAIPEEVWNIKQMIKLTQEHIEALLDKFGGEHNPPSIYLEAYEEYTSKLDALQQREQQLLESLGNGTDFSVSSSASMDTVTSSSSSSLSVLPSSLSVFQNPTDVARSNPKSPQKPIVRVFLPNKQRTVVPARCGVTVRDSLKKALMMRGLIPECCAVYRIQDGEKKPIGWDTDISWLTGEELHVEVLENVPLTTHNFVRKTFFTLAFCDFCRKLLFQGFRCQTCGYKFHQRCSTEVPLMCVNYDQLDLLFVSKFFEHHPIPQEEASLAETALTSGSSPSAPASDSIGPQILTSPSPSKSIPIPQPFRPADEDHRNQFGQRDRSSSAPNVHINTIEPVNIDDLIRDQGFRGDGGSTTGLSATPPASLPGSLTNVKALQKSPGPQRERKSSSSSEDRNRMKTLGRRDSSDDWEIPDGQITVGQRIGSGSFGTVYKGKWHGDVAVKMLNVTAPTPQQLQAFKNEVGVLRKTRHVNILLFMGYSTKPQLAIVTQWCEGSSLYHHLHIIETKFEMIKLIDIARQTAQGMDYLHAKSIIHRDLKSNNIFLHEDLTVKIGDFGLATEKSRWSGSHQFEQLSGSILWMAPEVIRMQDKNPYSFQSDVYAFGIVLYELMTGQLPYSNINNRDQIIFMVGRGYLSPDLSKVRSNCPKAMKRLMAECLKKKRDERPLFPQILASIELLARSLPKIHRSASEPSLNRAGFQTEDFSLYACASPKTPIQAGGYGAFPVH

Which IC50 does the source give for `Cc1ccc2c(Nc3ccc(CN(C)C)cc3)nccc2c1NC(=O)c1cccc2c(N)ncnc12` [Compound 40, 4-amino-N-(1-((4-((dimethylamino)methyl)phenyl)amino)-6-methylisoquinolin-5-yl)quinazoline-8-carboxamide] here?
The IC50 was 8.51 ± 1.02 nM.

How did the IC50 turn out when `COc1ccc(Nc2nccc3c(NC(=O)c4cccc5c(N)ncnc45)c(C)ccc23)cc1` [Compound 57, 4-amino-N-(1-((4-methoxyphenyl)amino)-6-methylisoquinolin-5-yl)quinazoline-8-carboxamide] was run?
Its IC50 is 2.89 ± 0.34 nM.

With `Cc1ccc2c(Cc3ccc(N(C)C)nc3)nccc2c1NC(=O)c1csc2c(N)ncnc12` [Compound 36, 4-amino-N-(1-((6-(dimethylamino)pyridin-3-yl)methyl)-6-methylisoquinolin-5-yl)thieno[3,2-d]pyrimidine-7-carboxamide] as the compound, how does the IC50 read?
Its IC50 is 22.5 ± 4.41 nM.

How did the IC50 turn out when `COc1ccc(Nc2nccc3c(NC(=O)c4cccc5c(N)ncnc45)c(C)ccc23)cn1` [Compound 75, 4-amino-N-(1-((6-methoxypyridin-3-yl)amino)-6-methylisoquinolin-5-yl)quinazoline-8-carboxamide] was run?
Its IC50 is 5.58 ± 0.77 nM.

How did the IC50 turn out when `COc1ccc(Nc2nccc3c(NC(=O)c4cnc5c(N)ncnn45)c(C)ccc23)c(F)c1` [Compound 61, 4-amino-N-(1-((2-fluoro-4-methoxyphenyl)amino)-6-methylisoquinolin-5-yl)imidazo[2,1-f][1,2,4]triazine-7-carboxamide] was run?
The IC50 was 2.88 ± 0.74 nM.

For `Cc1ccc2c(Nc3cccc(C(F)(F)F)c3)nccc2c1NC(=O)c1cccc2c(N)nccc12` [Comparative Example 2, 1-amino-N-(6-methyl-1-((3-(trifluoromethyl)phenyl)amino)isoquinolin-5-yl)isoquinoline-5-carboxamide, reference compound], which IC50 is on record?
Its IC50 is over 1000 nM.

With `Cc1ccc2c(Nc3ccnc(C(F)(F)F)c3)nccc2c1NC(=O)c1cccc2c(N)ncnc12` [Compound 71, 4-amino-N-(6-methyl-1-((2-(trifluoromethyl)pyridin-4-yl)amino)isoquinolin-5-yl)quinazoline-8-carboxamide] as the compound, how does the IC50 read?
The IC50 was 23 ± 1.76 nM.

`CCOc1ccc(Nc2nccc3c(NC(=O)c4cccc5c(N)ncnc45)c(C)ccc23)c(F)c1` [Compound 74, 4-amino-N-(1-((4-ethoxy-2-fluorophenyl)amino)-6-methylisoquinolin-5-yl)quinazoline-8-carboxamide] was tested. Which IC50 did it give?
Its IC50 is 13.8 ± 0.9 nM.

With `Cc1ccc2c(Nc3cccc(Cl)c3F)nccc2c1NC(=O)c1cc(OCCO)cc2c(N)ncnc12` [Compound 86, 4-amino-N-(1-((3-chloro-2-fluorophenyl)amino)-6-methylisoquinolin-5-yl)-6-(2-hydroxyethoxy)quinazoline-8-carboxamide] as the compound, how does the IC50 read?
Its IC50 is 11.9 ± 1.3 nM.

Which IC50 does the source give for `Cc1ccc2c(Nc3ccc(N(C)C)nc3)nccc2c1NC(=O)c1cccc2c(N)ncnc12` [Compound 59, 4-amino-N-(1-((6-(dimethylamino)pyridin-3-yl)amino)-6-methylisoquinolin-5-yl)quinazoline-8-carboxamide] here?
Its IC50 is 13 ± 1.35 nM.

With `Cc1ccc2c(Nc3ccc(C#N)cc3F)nccc2c1NC(=O)c1cccc2c(N)ncnc12` [Compound 78, 4-amino-N-(1-((4-cyano-2-fluorophenyl)amino)-6-methylisoquinolin-5-yl)quinazoline-8-carboxamide] as the compound, how does the IC50 read?
The IC50 was 12.4 ± 0.94 nM.

With `Cc1ccc2c(Nc3cccc(Cl)c3F)nccc2c1NC(=O)c1cc(O)cc2c(N)ncnc12` [Compound 76, 4-amino-N-(1-((3-chloro-2-fluorophenyl)amino)-6-methylisoquinolin-5-yl)-6-hydroxyquinazoline-8-carboxamide] as the compound, how does the IC50 read?
The IC50 was 29.3 ± 3.32 nM.

For `Cc1ccc2c(C(O)c3ccc(F)cc3)nccc2c1NC(=O)c1csc2c(N)ncnc12` (centres unmarked) [Compound 15, 4-amino-N-(1-((4-fluorophenyl)(hydroxy)methyl)-6-methylisoquinolin-5-yl)thieno[3,2-d]pyrimidine-7-carboxamide], which IC50 is on record?
The IC50 was 11.1 ± 1.5 nM.

For `Cc1ccc2c(Nc3ccc4c(c3)OCCO4)nccc2c1NC(=O)c1cccc2c(N)ncnc12` [Compound 77, 4-amino-N-(1-((2,3-dihydrobenzo[b][1,4]dioxin-6-yl)amino)-6-methylisoquinolin-5-yl)quinazoline-8-carboxamide], which IC50 is on record?
Its IC50 is 7.9 ± 0.73 nM.

`Cc1ccc(Nc2nccc3c(NC(=O)c4cccc5c(N)ncnc45)c(C)ccc23)c(F)c1` [Compound 88, 4-amino-N-(1-((2-fluoro-4-methylphenyl)amino)-6-methylisoquinolin-5-yl)quinazoline-8-carboxamide] was tested. Which IC50 did it give?
Its IC50 is 11.7 ± 0.99 nM.

With `Cc1ccc2c(Nc3cc(Cl)ccc3F)nccc2c1NC(=O)c1cc(F)cc2c(N)ncnc12` [Compound 84, 4-amino-N-(1-((5-chloro-2-fluorophenyl)amino)-6-methylisoquinolin-5-yl)-6-fluoroquinazoline-8-carboxamide] as the compound, how does the IC50 read?
The IC50 was 23.8 ± 4.41 nM.

How did the IC50 turn out when `Cc1ccc2c(Nc3cccc(C#N)c3F)nccc2c1NC(=O)c1cccc2c(N)ncnc12` [Compound 83, 4-amino-N-(1-((3-cyano-2-fluorophenyl)amino)-6-methylisoquinolin-5-yl)quinazoline-8-carboxamide] was run?
Its IC50 is 15.1 ± 1.62 nM.

`Cc1ccc2c(Nc3cccc(Cl)c3F)nccc2c1NC(=O)c1cn(C)c2c(N)ncnc12` [Compound 101, 4-amino-N-(1-((3-chloro-2-fluorophenyl)amino)-6-methylisoquinolin-5-yl)-5-methyl-5H-pyrrolo[3,2-d]pyrimidine-7-carboxamide] was tested. Which IC50 did it give?
Its IC50 is 5.58 ± 0.57 nM.

`Cc1ccc2c(Nc3ccc(Cl)c(F)c3F)nccc2c1NC(=O)c1cnc2c(N)ncnn12` [Compound 70, 4-amino-N-(1-((4-chloro-2,3-difluorophenyl)amino)-6-methylisoquinolin-5-yl)imidazo[2,1-f][1,2,4]triazine-7-carboxamide] was tested. Which IC50 did it give?
The IC50 was 10.5 ± 1.72 nM.

`Cc1ccc2c(C(O)c3ccccc3Cl)nccc2c1NC(=O)c1csc2c(N)ncnc12` (centres unmarked) [Compound 14, 4-amino-N-(1-((2-chlorophenyl)(hydroxy)methyl)-6-methylisoquinolin-5-yl)thieno[3,2-d]pyrimidine-7-carboxamide] was tested. Which IC50 did it give?
The IC50 was 6.3 ± 0.7 nM.

For `Cc1ccc2c(Cc3ccc(F)cc3)nccc2c1NC(=O)c1csc2c(N)ncnc12` [Compound 13, 4-amino-N-(1-(4-fluorobenzyl)-6-methylisoquinolin-5-yl)thieno[3,2-d]pyrimidine-7-carboxamide], which IC50 is on record?
Its IC50 is 32.8 ± 0.6 nM.

`COc1ccc(Cc2nccc3c(NC(=O)c4csc5c(N)ncnc45)c(C)ccc23)cc1` [Compound 5, 4-amino-N-(1-(4-methoxybenzyl)-6-methylisoquinolin-5-yl)thieno[3,2-d]pyrimidine-7-carboxamide] was tested. Which IC50 did it give?
Its IC50 is 8.9 ± 1.03 nM.

How did the IC50 turn out when `Cc1ccc2c(Nc3cccc(Cl)c3F)ncnc2c1NC(=O)c1cccc2c(N)ncnc12` [Compound 102, 4-amino-N-(4-((3-chloro-2-fluorophenyl)amino)-7-methylquinazolin-8-yl)quinazoline-8-carboxamide] was run?
Its IC50 is 12.4 ± 3.05 nM.

`Cc1ccc2c(Nc3cccc(OCCN4CCOCC4)c3F)nccc2c1NC(=O)c1cccc2c(N)ncnc12` [Compound 98, 4-amino-N-(1-((2-fluoro-3-(2-morpholinoethoxy)phenyl)amino)-6-methylisoquinolin-5-yl)quinazoline-8-carboxamide] was tested. Which IC50 did it give?
Its IC50 is 21.9 ± 6.38 nM.

With `Cc1ccc2c(Nc3cc(Br)ccc3F)nccc2c1NC(=O)c1cccc2c(N)ncnc12` [Compound 91, 4-amino-N-(1-((5-bromo-2-fluorophenyl)amino)-6-methylisoquinolin-5-yl)quinazoline-8-carboxamide] as the compound, how does the IC50 read?
Its IC50 is 20.9 ± 2.81 nM.

Which IC50 does the source give for `Cc1ccc2c(Cc3cccc(Cl)c3)nccc2c1NC(=O)c1csc2c(N)ncnc12` [Compound 16, 4-amino-N-(1-(3-chlorobenzyl)-6-methylisoquinolin-5-yl)thieno[3,2-d]pyrimidine-7-carboxamide] here?
The IC50 was 6.27 ± 1.15 nM.

With `Cc1ccc(Nc2nccc3c(NC(=O)c4cccc5c(N)ncnc45)c(C)ccc23)cc1` [Compound 65, 4-amino-N-(6-methyl-1-(p-tolylamino)isoquinolin-5-yl)quinazoline-8-carboxamide] as the compound, how does the IC50 read?
Its IC50 is 4.8 ± 0.78 nM.

For `Cc1ccc2c(Cc3ccc(Cl)c(CN(C)C)c3)nccc2c1NC(=O)c1csc2c(N)ncnc12` [Compound 42, 4-amino-N-(1-(4-chloro-3-((dimethylamino)methyl)benzyl)-6-methylisoquinolin-5-yl)thieno[3,2-d]pyrimidine-7-carboxamide], which IC50 is on record?
The IC50 was 35.8 ± 9.02 nM.

Which IC50 does the source give for `Cc1ccc2c(Nc3cccc(Cl)c3F)nccc2c1NC(=O)c1cc(N2CCN(C)CC2)cc2c(N)ncnc12` [Compound 54, 4-amino-N-(1-((3-chloro-2-fluorophenyl)amino)-6-methylisoquinolin-5-yl)-6-(4-methylpiperazin-1-yl)quinazoline-8-carboxamide] here?
Its IC50 is 11 ± 2.02 nM.

How did the IC50 turn out when `Cc1ccc2c(Cc3ccccc3Cl)nccc2c1NC(=O)c1csc2c(N)ncnc12` [Compound 10, 4-amino-N-(1-(2-chlorobenzyl)-6-methylisoquinolin-5-yl)thieno[3,2-d]pyrimidine-7-carboxamide] was run?
Its IC50 is 4.73 ± 1.82 nM.

With `COc1ccc(F)c(Nc2nccc3c(NC(=O)c4cccc5c(N)ncnc45)c(C)ccc23)c1` [Compound 87, 4-amino-N-(1-((2-fluoro-5-methoxyphenyl)amino)-6-methylisoquinolin-5-yl)quinazoline-8-carboxamide] as the compound, how does the IC50 read?
Its IC50 is 4.64 ± 0.7 nM.

With `Cc1ccc2c(Nc3cccc(Cl)c3)nccc2c1NC(=O)c1cnc2c(N)ncnn12` [Compound 12, 4-amino-N-(1-((3-chlorophenyl)amino)-6-methylisoquinolin-5-yl)imidazo[2,1-f][1,2,4]triazine-7-carboxamide] as the compound, how does the IC50 read?
The IC50 was 1.5 ± 0.2 nM.

Which IC50 does the source give for `Cc1ccc2c(Nc3ccccc3F)nccc2c1NC(=O)c1cnc2c(N)ncnn12` [Compound 44, 4-amino-N-(1-((2-fluorophenyl)amino)-6-methylisoquinolin-5-yl)imidazo[2,1-f][1,2,4]triazine-7-carboxamide] here?
Its IC50 is 0.88 ± 0.15 nM.

Which IC50 does the source give for `Cc1ccc2c(C(O)c3ccccc3Cl)nccc2c1NC(=O)c1cccc2c(N)ncnc12` (centres unmarked) [Compound 24, 4-amino-N-(1-((2-chlorophenyl)(hydroxy)methyl)-6-methylisoquinolin-5-yl)quinazoline-8-carboxamide] here?
The IC50 was 7.1 ± 0.7 nM.

How did the IC50 turn out when `Cc1ccc2c(Cc3ccc(C(F)(F)F)cc3)nccc2c1NC(=O)c1csc2c(N)ncnc12` [Compound 34, 4-amino-N-(6-methyl-1-(4-(trifluoromethyl)benzyl)isoquinolin-5-yl)thieno[3,2-d]pyrimidine-7-carboxamide] was run?
The IC50 was 26.9 ± 2.58 nM.
